Measured values as given in the supplement of paper PMC4862054.

How the values were obtained:
Details in all cases: incubation time: 72 h
HCC1937 [1] = assay: normalised response (% of control), CellTiter-Glo; higher = more viable cells (100 = DMSO, 0 = benzethonium chloride kill control)
Procedure: (§1)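 DSRT, 72 h incubation, CellTox Green / CellTiter-Glo readout. Signal is normalised to DMSO and benzethonium chloride controls. Value is the normalised response at dose 3.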

MDA-MB-468 [2] = assay: as above
Procedure: as §1

HCC1143 [3] = assay: as above
Procedure: as §1

HDQ-P1 [4] = assay: as above
Procedure: as §1

MCF-10A [5] = assay: as above
Procedure: as §1

HCC1599 [6] = assay: as above
Procedure: as §1

CAL-85-1 [7] = assay: as above
Procedure: as §1

BT-549 [8] = assay: as above
Procedure: as §1

DU-4475 [9] = assay: as above
Procedure: as §1

MDA-MB-453 [10] = assay: as above
Procedure: as §1

MDA-MB-231 [11] = assay: as above
Procedure: as §1

CAL-51 [12] = assay: as above
Procedure: as §1

SK-BR-3 [13] = assay: as above
Procedure: as §1

MDA-MB-436 [14] = assay: as above
Procedure: as §1

CAL-120 [15] = assay: as above
Procedure: as §1

BT-474 [16] = assay: as above
Procedure: as §1

MFM-223 [17] = assay: as above
Procedure: as §1

CAL-148 [18] = assay: as above
Procedure: as §1

HCC1937 [19] = assay: normalised response (% of control), CellTox Green; higher = less cell death (100 = DMSO, 0 = benzethonium chloride kill control)
Outline: (§2)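 After 72 h with compound in 384-well plates, breast cancer cell lines seeded as 20 µl suspension were read for CellTox Green fluorescence at 485/520 nm. CellTiter-Glo luminescence was then read after 10 min at room temperature. Compound was present at 5 concentrations in 10-fold steps over a 10,000-fold range set per compound, and plates were normalised to 0.1 % DMSO (100) and a positive kill control (0). Values are normalised signals, each at a single concentration.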

MDA-MB-468 [20] = assay: as above
Outline: as §2

HCC1143 [21] = assay: as above
Outline: as §2

HDQ-P1 [22] = assay: as above
Outline: as §2

MCF-10A [23] = assay: as above
Outline: as §2

HCC1599 [24] = assay: as above
Outline: as §2

CAL-85-1 [25] = assay: as above
Outline: as §2

BT-549 [26] = assay: as above
Outline: as §2

DU-4475 [27] = assay: as above
Outline: as §2

Hs578T [28] = assay: as above
Outline: as §2

MDA-MB-453 [29] = assay: as above
Outline: as §2

MDA-MB-231 [30] = assay: as above
Outline: as §2

CAL-51 [31] = assay: as above
Outline: as §2

MDA-MB-436 [32] = assay: as above
Outline: as §2

CAL-120 [33] = assay: as above
Outline: as §2

BT-474 [34] = assay: as above
Outline: as §2

MFM-223 [35] = assay: as above
Outline: as §2

CAL-148 [36] = assay: as above
Outline: as §2

HCC1937 [37] = assay: normalised response (% of control), CellTiter-Glo; higher = more viable cells (100 = DMSO, 0 = benzethonium chloride kill control); remark: listed apart in the source
Procedure: (§3)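 DSRT, 72 h incubation, CellTox Green / CellTiter-Glo readout. Signal is normalised to DMSO and benzethonium chloride controls. Value is the normalised response at the highest dose.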

MDA-MB-468 [38] = assay: as above; remark: listed apart in the source
Procedure: as §3

HCC1143 [39] = assay: as above; remark: listed apart in the source
Procedure: as §3

HDQ-P1 [40] = assay: as above; remark: listed apart in the source
Procedure: as §3

MCF-10A [41] = assay: as above; remark: listed apart in the source
Procedure: as §3

HCC1599 [42] = assay: as above; remark: listed apart in the source
Procedure: as §3

CAL-85-1 [43] = assay: as above; remark: listed apart in the source
Procedure: as §3

BT-549 [44] = assay: as above; remark: listed apart in the source
Procedure: as §3

DU-4475 [45] = assay: as above; remark: listed apart in the source
Procedure: as §3

Hs578T [46] = assay: as above
Procedure: as §3

MDA-MB-453 [47] = assay: as above; remark: listed apart in the source
Procedure: as §3

MDA-MB-231 [48] = assay: as above; remark: listed apart in the source
Procedure: as §3

CAL-51 [49] = assay: as above; remark: listed apart in the source
Procedure: as §3

SK-BR-3 [50] = assay: as above; remark: listed apart in the source
Procedure: as §3

MDA-MB-436 [51] = assay: as above; remark: listed apart in the source
Procedure: as §3

CAL-120 [52] = assay: as above; remark: listed apart in the source
Procedure: as §3

BT-474 [53] = assay: as above; remark: listed apart in the source
Procedure: as §3

MFM-223 [54] = assay: as above; remark: listed apart in the source
Procedure: as §3

CAL-148 [55] = assay: as above; remark: listed apart in the source
Procedure: as §3

Compound	normalised response (MDA-MB-468 [20])	normalised response (HCC1143 [21])	normalised response (HDQ-P1 [22])	normalised response (MCF-10A [23])	normalised response (HCC1599 [24])	normalised response (CAL-85-1 [25])	normalised response (BT-549 [26])	normalised response (DU-4475 [27])	normalised response (Hs578T [28])	normalised response (MDA-MB-453 [29])	normalised response (MDA-MB-231 [30])	normalised response (CAL-51 [31])	normalised response (CAL-120 [33])	normalised response (BT-474 [34])	normalised response (MFM-223 [35])	normalised response (CAL-148 [36])	normalised response (HCC1937 [37])	normalised response (MDA-MB-468 [38])	normalised response (HCC1143 [39])	normalised response (HDQ-P1 [40])	further results
Cn1c(=O)n(-c2ccc(C(C)(C)C#N)cc2)c2c3cc(-c4cnc5ccccc5c4)ccc3ncc21 [Dactolisib] (10 nM)	130%	55.5%	116%	108%	115%	101%	110%	104%	116%	108%	120%	113%	98.7%	101%	104%	103%	–	–	–	–	normalised response (HCC1937 [1]): 85.5%; normalised response (MDA-MB-468 [2]): 84.3%; normalised response (HCC1143 [3]): 78%; normalised response (HDQ-P1 [4]): 80.1%; normalised response (MCF-10A [5]): 99.8%; normalised response (HCC1599 [6]): 97.5%; normalised response (CAL-85-1 [7]): 62.9%; normalised response (BT-549 [8]): 61.5%; normalised response (DU-4475 [9]): 96.3%; normalised response (MDA-MB-453 [10]): 75.9%; normalised response (MDA-MB-231 [11]): 80.3%; normalised response (CAL-51 [12]): 68.4%; normalised response (SK-BR-3 [13]): 73.6%; normalised response (MDA-MB-436 [14]): 65.9%; normalised response (CAL-120 [15]): 62.1%; normalised response (BT-474 [16]): 80.5%; normalised response (MFM-223 [17]): 83.8%; normalised response (CAL-148 [18]): 88.5%; normalised response (HCC1937 [19]): 122%; normalised response (MDA-MB-436 [32]): 102%
Cc1ccc(NC(=O)c2ccc(CN3CCN(C)CC3)cc2)cc1Nc1nccc(-c2cccnc2)n1 [Imatinib] (10000 nM)	113%	91.2%	74.4%	65.1%	94.8%	84.2%	92.7%	97.9%	76.1%	-13.7%	114%	93.1%	101%	96.6%	99.9%	103%	83.6%	86.8%	91.3%	111%	normalised response (MCF-10A [41]): 128%; normalised response (HCC1599 [42]): 71.6%; normalised response (CAL-85-1 [43]): 85.7%; normalised response (BT-549 [44]): 89.5%; normalised response (DU-4475 [45]): 107%; normalised response (Hs578T [46]): 98.3%; normalised response (MDA-MB-453 [47]): 73.4%; normalised response (MDA-MB-231 [48]): 94.8%; normalised response (CAL-51 [49]): 76.5%; normalised response (SK-BR-3 [50]): 84.7%; normalised response (MDA-MB-436 [51]): 94.3%; normalised response (CAL-120 [52]): 108%; normalised response (BT-474 [53]): 87.4%; normalised response (MFM-223 [54]): 87.7%; normalised response (CAL-148 [55]): 116%; normalised response (MDA-MB-436 [32]): 87.4%
c1ccc([C@H]2CN3CCSC3=N2)cc1 [Levamisole] (10000 nM)	110%	106%	72.4%	67.3%	92.5%	79.1%	95.8%	104%	72%	71.4%	–	113%	98.4%	101%	95.2%	53.5%	100%	104%	99.3%	104%	normalised response (MCF-10A [41]): 110%; normalised response (HCC1599 [42]): 114%; normalised response (CAL-85-1 [43]): 94%; normalised response (BT-549 [44]): 96.5%; normalised response (DU-4475 [45]): 98.9%; normalised response (Hs578T [46]): 100%; normalised response (MDA-MB-453 [47]): 106%; normalised response (MDA-MB-231 [48]): 104%; normalised response (CAL-51 [49]): 119%; normalised response (SK-BR-3 [50]): 110%; normalised response (MDA-MB-436 [51]): 108%; normalised response (CAL-120 [52]): 112%; normalised response (BT-474 [53]): 102%; normalised response (MFM-223 [54]): 108%; normalised response (CAL-148 [55]): 106%; normalised response (HCC1937 [19]): 82.5%
CNNCc1ccc(C(=O)NC(C)C)cc1 [Procarbazine] (10000 nM)	–	115%	99.9%	115%	98.3%	72%	94%	96.2%	108%	60.5%	99%	110%	111%	103%	94.5%	93%	103%	99.4%	113%	104%	normalised response (MCF-10A [41]): 109%; normalised response (HCC1599 [42]): 96.8%; normalised response (CAL-85-1 [43]): 99.3%; normalised response (BT-549 [44]): 101%; normalised response (DU-4475 [45]): 102%; normalised response (Hs578T [46]): 105%; normalised response (MDA-MB-453 [47]): 102%; normalised response (MDA-MB-231 [48]): 103%; normalised response (CAL-51 [49]): 96.3%; normalised response (SK-BR-3 [50]): 109%; normalised response (MDA-MB-436 [51]): 103%; normalised response (CAL-120 [52]): 106%; normalised response (BT-474 [53]): 98%; normalised response (MFM-223 [54]): 108%; normalised response (CAL-148 [55]): 107%; normalised response (MDA-MB-436 [32]): 81.7%
CN1CCN(CCOc2cc(OC3CCOCC3)c3c(Nc4c(Cl)ccc5c4OCO5)ncnc3c2)CC1 [Saracatinib] (10000 nM)	125%	96.4%	68.9%	87.1%	76.6%	29.9%	86.2%	95.5%	59.7%	79%	51.3%	58%	94.5%	42%	90.4%	68.4%	56%	67.5%	67.1%	34.6%	normalised response (MCF-10A [41]): 21.4%; normalised response (HCC1599 [42]): 19.4%; normalised response (CAL-85-1 [43]): 27.9%; normalised response (BT-549 [44]): 57.8%; normalised response (DU-4475 [45]): 106%; normalised response (Hs578T [46]): 64.8%; normalised response (MDA-MB-453 [47]): 63.1%; normalised response (MDA-MB-231 [48]): 47.5%; normalised response (CAL-51 [49]): 59.8%; normalised response (SK-BR-3 [50]): 46.9%; normalised response (MDA-MB-436 [51]): 83%; normalised response (CAL-120 [52]): 66.3%; normalised response (BT-474 [53]): 55%; normalised response (MFM-223 [54]): 64.9%; normalised response (CAL-148 [55]): 75.2%; normalised response (HCC1937 [19]): 81.7%
